pIC50: −log10 of the molar value.
Biological target: ADAMTS4 (Homo sapiens (Human), UniProt O75173)
Experiment: Selectivity assay for ADAMTS-7 modulators: ADAMTS4 (FRET substrate)
Type: biochemical
Settings: ADAMTS4 (R&D 4307-AD) 50 nM, substrate Dabcyl-EEVKAKVQPY-Glu(Edans)-NH2 1 μM, 120 min, 32° C.
Procedure: 1 μl test compound solution (dissolved in DMSO, at the corresponding concentration) or pure DMSO as a control was added per well. The enzymatic reaction was initiated by addition of 25 μl of the respective concentration of the respective FRET substrate (see table 2 below) in reaction buffer.
The increase of fluorescence intensity was measured in appropriate fluorescence plate reader (e.g. TECAN Ultra) using the respective wavelengths for excitation and emission. IC50 values were calculated from percentage of inhibition of enzyme activity as a function of test compound concentration.

Chain of ADAMTS4 (O75173 213-685): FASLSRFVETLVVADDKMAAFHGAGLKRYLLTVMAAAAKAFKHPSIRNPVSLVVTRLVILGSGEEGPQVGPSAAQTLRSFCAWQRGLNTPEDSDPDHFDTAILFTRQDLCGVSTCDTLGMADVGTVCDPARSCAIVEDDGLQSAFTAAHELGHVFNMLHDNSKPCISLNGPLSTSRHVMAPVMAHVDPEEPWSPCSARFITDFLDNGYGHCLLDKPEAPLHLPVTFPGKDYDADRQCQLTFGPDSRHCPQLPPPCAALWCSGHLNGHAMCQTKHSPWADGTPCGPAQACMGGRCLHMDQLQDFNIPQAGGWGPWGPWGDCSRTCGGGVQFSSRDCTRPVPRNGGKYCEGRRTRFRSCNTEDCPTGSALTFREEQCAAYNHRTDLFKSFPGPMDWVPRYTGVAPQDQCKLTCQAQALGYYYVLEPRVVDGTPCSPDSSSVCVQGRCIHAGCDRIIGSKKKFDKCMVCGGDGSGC

First: Cc1ccc(-c2cc(Cl)ccc2C(=O)NC[C@@]2(C3CC3)NC(=O)NC2=O)cc1 [Example 215, 5-Chloro-N-{[(4R)-4-Cyclopropyl-2,5-Dioxoimidazolidin-4-Yl]Methyl}-4′-Methyl[Biphenyl]-2-Carboxamide]
Second: O=C1NC(=O)[C@](CNC(=O)c2ccc(Cl)cc2-c2ccc(C(F)(F)F)cc2)(C2CC2)N1 [Example 216, 5-Chloro-N-{[(4R)-4-Cyclopropyl-2,5-Dioxoimidazolidin-4-Yl]Methyl}-4′-(Trifluoromethyl)[1,1′-Biphenyl]-2-Carboxamide]
The pIC50 of the first is 0.42 log units higher: 5.46 for the first, 5.04 for the second.

Compared with Cc1cnsc1C1(CNC(=O)c2ccccc2-c2ccc(C(F)(F)F)cc2)NC(=O)NC1=O (racemic) [Example 97, Rac-N-{[4-(4-Methyl-1,2-Thiazol-5-Yl)-2,5-Dioxoimidazolidin-4-Yl]Methyl}-4′-(Trifluoromethyl)[Biphenyl]-2-Carboxamide], Cc1ncoc1C1(CNC(=O)c2ccccc2-c2ccc(C(F)(F)F)cc2)NC(=O)NC1=O (racemic) [Example 43, Rac-N-{[4-(4-Methyl-1,3-Oxazol-5-Yl)-2,5-Dioxoimidazolidin-4-Yl]Methyl}-4′-(Trifluoromethyl)[Biphenyl]-2-Carboxamide] is 0.59 log units lower in pIC50: 5.14 for the first, 4.55 for the second. The first is the more potent here.

O=C1NC(=O)C(CNC(=O)c2ccccc2-c2ccc(C(F)(F)F)cc2)(c2cscn2)N1 (stereo not drawn) [Example 197, Ent-N-{[2,5-Dioxo-4-(1,3-Thiazol-4-Yl)Imidazolidin-4-Yl]Methyl}-4′-(Trifluoromethyl)[Biphenyl]-2-Carboxamide] and O=C1NC(=O)C(CNC(=O)c2ccc(F)cc2-c2ccc(C(F)(F)F)cc2)(c2cscn2)N1 (stereo not drawn) [Example 199, Ent-N-{[2,5-Dioxo-4-(1,3-Thiazol-4-Yl)Imidazolidin-4-Yl]Methyl}-5-Fluoro-4′-(Trifluoromethyl)[Biphenyl]-2-Carboxamide] are within 0.2 log units of each other in pIC50: 4.89 for the first, 4.80 for the second.

First: Cc1nc(C2(CNC(=O)c3ccc(F)cc3-c3ccc(C(F)(F)F)cc3)NC(=O)NC2=O)c(C)s1 (racemic) [Example 269, Rac-N-{[4-(2,5-Dimethyl-1,3-Thiazol-4-Yl)-2,5-Dioxoimidazolidin-4-Yl]Methyl}-5-Fluoro-4′-(Trifluoromethyl)[Biphenyl]-2-Carboxamide]
Second: Cn1ccnc1C1(CNC(=O)c2ccc(F)cc2-c2ccc(C(F)(F)F)cc2)NC(=O)NC1=O (single isomer, unassigned; ent-5) [Example 150, Ent-5-Fluoro-N-{[4-(1-Methyl-1H-Imidazol-2-Yl)-2,5-Dioxoimidazolidin-4-Yl]Methyl}-4′-(Trifluoromethyl)[Biphenyl]-2-Carboxamide]
The pIC50 of the first is 0.71 log units lower: 5.02 for the first, 5.73 for the second. The second is the more potent here.

Cc1ncsc1C1(CNC(=O)c2ccc(Cl)cc2-c2ccc(C(F)(F)F)cc2)NC(=O)NC1=O (single isomer, unassigned; ent-5) [Example 7, Ent-5-Chloro-N-{[4-(4-Methyl-1,3-Thiazol-5-Yl)-2,5-Dioxoimidazolidin-4-Yl]Methyl}-4′-(Trifluoromethyl)[Biphenyl]-2-Carboxamide] and Cn1nccc1C1(CNC(=O)c2ccc(Cl)cc2-c2ccc(C(F)(F)F)cc2)NC(=O)NC1=O (single isomer, unassigned; ent-5) [Example 188, Ent-5-Chloro-N-{[4-(1-Methyl-1H-Pyrazol-5-Yl)-2,5-Dioxoimidazolidin-4-Yl]Methyl}-4′-(Trifluoromethyl)[Biphenyl]-2-Carboxamide] are within 0.2 log units of each other in pIC50: 5.43 for the first, 5.56 for the second.

Going from Cn1nccc1C1(CNC(=O)c2c(F)cccc2-c2ccc(Cl)cc2)NC(=O)NC1=O (single isomer, unassigned; ent-4) [Example 312, Ent-4′-Chloro-3-Fluoro-N-{[4-(1-Methyl-1H-Pyrazol-5-Yl)-2,5-Dioxoimidazolidin-4-Yl]Methyl}[Biphenyl]-2-Carboxamide] to Cn1nccc1C1(CNC(=O)c2cc(F)c(F)cc2-c2ccc(C(F)(F)F)cc2)NC(=O)NC1=O (single isomer, unassigned; ent-4) [Example 192, Ent-4,5-Difluoro-N-{[4-(1-Methyl-1H-Pyrazol-5-Yl)-2,5-Dioxoimidazolidin-4-Yl]Methyl}-4′-(Trifluoromethyl)[Biphenyl]-2-Carboxamide], the pIC50 rises from 4.70 to 5.15 (0.45 log units). The second is the more potent here.

Compared with O=C1NC(=O)C(CNC(=O)c2ccccc2-c2ccc(Cl)cc2)(C2(F)CC2)N1 (racemic) [Example 250, Rac-4′-Chloro-N-{[4-(1-Fluorocyclopropyl)-2,5-Dioxoimidazolidin-4-Yl]Methyl}[Biphenyl]-2-Carboxamide], CC(C)(C)c1ccc(-c2ccccc2C(=O)NC[C@@]2(C3CC3)NC(=O)NC2=O)cc1 [Example 113, 4′-Tert-Butyl-N-{[(4R)-4-Cyclopropyl-2,5-Dioxoimidazolidin-4-Yl]Methyl}[Biphenyl]-2-Carboxamide] is 0.41 log units higher in pIC50: 4.51 for the first, 4.92 for the second.

Compared with CS(=O)(=O)c1ccc(-c2ccccc2C(=O)NC[C@@]2(C3CC3)NC(=O)NC2=O)cc1 [Example 217, N-{[(4R)-4-Cyclopropyl-2,5-Dioxoimidazolidin-4-Yl]Methyl}-4′-(Methanesulfonyl)[1,1′-Biphenyl]-2-Carboxamide], Cc1ccc(-c2c(C)cccc2C(=O)NC[C@@]2(C3CC3)NC(=O)NC2=O)cc1 [Example 101, N-{[(4R)-4-Cyclopropyl-2,5-Dioxoimidazolidin-4-Yl]Methyl}-4′,6-Dimethyl[Biphenyl]-2-Carboxamide] is 0.69 log units higher in pIC50: 4.80 for the first, 5.49 for the second.

Compared with O=C1NC(=O)[C@](CNC(=O)c2cccc(F)c2-c2ccc(C(F)(F)F)cc2)(C2CC2)N1 [Example 235, N-{[(4R)-4-Cyclopropyl-2,5-Dioxoimidazolidin-4-Yl]Methyl}-6-Fluoro-4′-(Trifluoromethyl)[1,1′-Biphenyl]-2-Carboxamide], O=C1NC(=O)C(CNC(=O)c2ccc(F)cc2-c2ccc(C(F)(F)F)cc2)(C2CCC2)N1 (stereo not drawn) [Example 239, Ent-N-[(4-Cyclobutyl-2,5-Dioxoimidazolidin-4-Yl)Methyl]-5-Fluoro-4′-(Trifluoromethyl)[Biphenyl]-2-Carboxamide] is lower in pIC50: 5.11 for the first, under 4.30 for the second. The first is the more potent here.

Going from Cn1ccnc1C1(CNC(=O)c2cc(F)c(F)cc2-c2ccc(C3CC3(F)F)cc2)NC(=O)NC1=O (stereo not drawn) [Example 143, 4′-(2,2-Difluorocyclopropyl)-4,5-Difluoro-N-{[4-(1-Methyl-1H-Imidazol-2-Yl)-2,5-Dioxoimidazolidin-4-Yl]Methyl}[1,1′-Biphenyl]-2-Carboxamide] to Cn1ccnc1C1(CNC(=O)c2cc(F)ccc2-c2ccc(C3CC3(F)F)cc2)NC(=O)NC1=O (stereo not drawn) [Example 139, 4′-(2,2-Difluorocyclopropyl)-4-Fluoro-N-{[4-(1-Methyl-1H-Imidazol-2-Yl)-2,5-Dioxoimidazolidin-4-Yl]Methyl}[1,1′-Biphenyl]-2-Carboxamide], the pIC50 rises from 5.34 to 5.68 (0.34 log units).

O=C1NC(=O)C(CNC(=O)c2ccccc2-c2ccc(C(F)(F)F)cc2)(c2cncn2CC(F)(F)F)N1 (racemic) [Example 94, Rac-N-({2,5-Dioxo-4-[1-(2,2,2-Trifluoroethyl)-1H-Imidazol-5-Yl]Imidazolidin-4-Yl}Methyl)-4′-(Trifluoromethyl)[Biphenyl]-2-Carboxamide] and Cn1cncc1C1(CNC(=O)c2ccccc2-c2ccc(C(F)(F)F)cc2)NC(=O)NC1=O (stereo not drawn) [Example 297, Ent-N-{[4-(1-Methyl-1H-Imidazol-5-Yl)-2,5-Dioxoimidazolidin-4-Yl]Methyl}-4′-(Trifluoromethyl)[Biphenyl]-2-Carboxamide] are within 0.2 log units of each other in pIC50: 5.27 for the first, 5.39 for the second.

Going from Cc1ccc(C(=O)NC[C@@]2(C3CC3)NC(=O)NC2=O)c(-c2ccc(C3CC3(F)F)cc2)c1 (single isomer, unassigned) [Example 138] to CC(C)(C)c1ccc(-c2cc(F)ccc2C(=O)NC[C@@]2(C3CC3)NC(=O)NC2=O)cc1 [Example 124, 4′-Tert-Butyl-N-{[(4R)-4-Cyclopropyl-2,5-Dioxoimidazolidin-4-Yl]Methyl}-5-Fluoro[Biphenyl]-2-Carboxamide], the pIC50 falls from 5.31 to 4.38 (0.93 log units).

Going from O=C1NC(=O)C(CNC(=O)c2ccccc2-c2ccc(C(F)(F)F)cc2)(c2ccnn2C(F)F)N1 (racemic) [Example 260, Rac-N-({4-[1-(Difluoromethyl)-1H-Pyrazol-5-Yl]-2,5-Dioxoimidazolidin-4-Yl}Methyl)-4′-(Trifluoromethyl)[Biphenyl]-2-Carboxamide] to Cn1nccc1C1(CNC(=O)c2ccc(C(F)F)cc2-c2ccc(C(F)(F)F)cc2)NC(=O)NC1=O (single isomer, unassigned; ent-5) [Example 309, Ent-5-(Difluoromethyl)-N-{[4-(1-Methyl-1H-Pyrazol-5-Yl)-2,5-Dioxoimidazolidin-4-Yl]Methyl}-4′-(Trifluoromethyl)[Biphenyl]-2-Carboxamide], the pIC50 rises from 4.77 to 5.57 (0.80 log units). The second is the more potent here.

First: O=C1NC(=O)C(CNC(=O)c2ccc(F)c(F)c2-c2ccc(C(F)(F)F)cc2)(C2(F)CC2)N1 (racemic) [Example 256, Rac-5,6-Difluoro-N-{[4-(1-Fluorocyclopropyl)-2,5-Dioxoimidazolidin-4-Yl]Methyl}-4′-(Trifluoromethyl)[Biphenyl]-2-Carboxamide]
Second: O=C1NC(=O)C(CNC(=O)c2cc(F)ccc2-c2ccc(C(F)(F)F)cc2)(c2ncsc2C(F)(F)F)N1 (stereo not drawn) [Example 266, Ent-N-({2,5-Dioxo-4-[5-(Trifluoromethyl)-1,3-Thiazol-4-Yl]Imidazolidin-4-Yl}Methyl)-4-Fluoro-4′-(Trifluoromethyl)[Biphenyl]-2-Carboxamide]
The pIC50 of the first is 0.45 log units lower: 4.55 for the first, 5.00 for the second. The second is the more potent here.

First: Cn1cncc1C1(CNC(=O)c2ccccc2-c2ccc(C(F)(F)F)nc2)NC(=O)NC1=O (racemic) [Example 285, Rac-N-{[4-(1-Methyl-1H-Imidazol-5-Yl)-2,5-Dioxoimidazolidin-4-Yl]Methyl}-2-[6-(Trifluoromethyl)Pyridin-3-Yl]Benzamide]
Second: Cc1nscc1C1(CNC(=O)c2ccccc2-c2ccc(C(F)(F)F)nc2)NC(=O)NC1=O (racemic) [Example 49, Rac-N-{[4-(3-Methyl-1,2-Thiazol-4-Yl)-2,5-Dioxoimidazolidin-4-Yl]Methyl}-2-[6-(Trifluoromethyl)Pyridin-3-Yl]Benzamide]
The pIC50 of the first is 0.52 log units higher: 5.18 for the first, 4.66 for the second. The first is the more potent here.
